Experimental findings from patent publication US20210379153A1, “COMBINATION THERAPIES COMPRISING SIRP ALPHA-BASED CHIMERIC PROTEINS” (Shattuck Labs, Inc., priority 2018, published 2021) are described below.

The target of data set [1] is recombinant hCD47 and recombinant hCD40 (Homo sapiens, UniProt P25942+Q08722). Kind of data set: Functional dual ELISA (hCD40 capture, hCD47-His detection). It is filed as binding.
For the next data set, the system named is Toledo lymphoma cells. Kind of data set: Phagocytosis of Toledo lymphoma cells by human monocyte derived macrophages (flow cytometry). To be noted: combination with rituximab. Format: cell-based. On the procedure:
(§1) FIG. 8D: Macrophage:Toledo lymphoma co-cultures were harvested 2 hours into phagocytosis assays in the presence of rituximab ([…]), SIRPα-Fc-CD40L ([…]), or the combination of both agents. Macrophages were isolated by CD11b+ FACS, RNA was prepared, cDNA synthesized, and gene expression (IFNa1, IFNb1, CD80, and CD86) assessed by qRT-PCR. Fold change was calculated using DDCT and values obtained from the housekeeping gene ACTB, and the corresponding values from untreated samples. […] After 2 hours, co-cultures were isolated from tissue culture vessels and were stained with a fluorescently conjugated CD11b antibody to discriminate macrophages. Cells were then assessed by flow cytometry for the co-localization of fluorescent signal from both cells types. Identical assays were set up where macrophages were pre-incubated for 1 hour with 20 μg/mL of a commercially available Fc block cocktail or with 20 μg/mL of a CD40 blocking antibody or with 5 μg/mL of a calreticulin blocking peptide. FIG. 8G: RAW 264.7-Lucia ISG cells were cultured with A20 lymphoma cells in the presence of 50 mg/mL of mSIRPα-Fc-CD40L, recombinant Fc-mCD40L, mSIRPα-Fc, or their combination, 1 mg/mL anti-mCD20, or the combination of mSIRPα-Fc-CD40L and anti-mCD20. After 24-hours type I interferon induced luminescence was assessed using a luminometer. The maximum luminescence (RLU) from each experiment was set to 1, and all other samples were normalized accordingly. Values from repeat experiments are shown.
In contrast, phagocytosis-stimulating activity of the combination was not impacted when macrophages were pre-treated with a CD40-blocking antibody (“CD40 Block”).
On the technique in general: A flow cytometer gives signals particle by particle.

Data set [2] deals with IRF-inducible ISG reporter in RAW264.7 cells. Put plainly: RAW264.7-ISG interferon reporter cells co-cultured with A20 lymphoma cells. To be noted: monotherapy; 50 mg/mL proteins, 1 mg/mL anti-mCD20; 24 hours. Format: cell-based, mouse. On the procedure: as §1, with “Identical assays were set up where macrophages were pre-incubated for 1 hour with 20 μg/mL of a commercially available Fc block cocktail or with 20 μg/mL of a CD40 blocking antibody or with 5 μg/mL of a calreticulin blocking peptide. FIG. 8G: RAW 264.7-Lucia ISG cells were cultured with A20 lymphoma cells in the presence of 50 mg/mL of mSIRPα-Fc-CD40L, recombinant Fc-mCD40L, mSIRPα-Fc, or their combination, 1 mg/mL anti-mCD20, or the combination of mSIRPα-Fc-CD40L and anti-mCD20.” left out, “Values from repeat experiments are shown.” left out
Additionally, a macrophage reporter system was used to detect activation. […] After 24 hours, culture supernatant was collected and assessed for luciferase activity, which would indicate activation of a type I interferon response in the RAW-ISG reporter cells. […]

The next data set has as its system splenic dendritic cells. Kind of data set: In vivo splenic dendritic cell activation. The arrangement: species or system mice. To be noted: mouse. On the procedure:
For each panel, the samples are (left to right): untreated, sheep RBCs, αCD47 (MIAP301), αSIRPα (P84), mSIRPα-Fc-CD40L, mSIRPα-Fc-CD40L (24 Hrs), and αCD47 (MIAP301) (24 hrs). FIG. 9B is a quantitation of in vivo dendritic cell activation corresponding to FIG. 9A. Shown is the absolute percent of CD4+ and CD8+ dendritic cells; also gated on CD11c and DC1R2. In FIG. 9B, for each panel, the samples are (left to right): untreated, sheep RBCs, αCD47 (MIAP301), αSIRPα (P84), SIRPα-Fc-CD40L (150 μg), SIRPα-Fc-CD40L (300 μg), SIRPα-Fc-CD40L (300 μg) (24 Hrs), and αCD47 (MIAP301) (24 hrs).
An in vivo assay to examine SIRPα/CD47 function in mice was describe in Yi et al., “Splenic Dendritic Cells Survey Red Blood Cells for Missing Self-CD47 to Trigger Adaptive Immune Responses. Immunity. 2015; 43(4):764-75) (the contents of which is incorporated by reference in its entirety). This assay detects the activation status of splenic dendritic cells in response to SIRPα/CD47 inhibitors or to infused sheep red blood cells (RBC).
After 6 or 24 hours, mice were euthanized and their spleens excised, dissociated, and assessed by flow cytometry for populations of activated CD4+ dendritic cells (DCs) (FIG. 9A, left panel) or CD8+ dendritic cells (FIG. 9A, right panel); both populations of dendritic cells were also positive for MHC II (I-Ab), CD11c, and DC1R2.

For data set [3], the system named is A431 (high EGFR-expressing skin cancer cell line). Put plainly: Macrophage engulfment of A431 cells. Format: cell-based, human. To be noted: combination with anti-EGFR antibody (cetuximab); vs low EGFR-expressing tumor cells.
Data set [4] concerns HCC827 (high EGFR-expressing lung cancer cell line). Kind of data set: Macrophage engulfment of HCC827 cells. Format: cell-based, human. To be noted: combination with anti-EGFR antibody (cetuximab); vs low EGFR-expressing tumor cells.
Data set [5] concerns K562 (low EGFR-expressing CML cell line). Put plainly: Macrophage engulfment of K562 cells. Format: cell-based, human.
Data set [6] concerns human donor red blood cells (RBCs). Put plainly: In vitro hemolysis assay, human red blood cells. Format: cell-based. On the procedure: FIG. 22B is a graph showing RBCs and test agents that were incubated at 37° C. for 24 hours and then the media was assessed at OD490 for changes in absorbance due to hemoglobin being released from lysing RBCs. […] FIG. 22D are graphs showing that peripheral blood was isolated from mice receiving three IP doses (300 μg) of the murine SIRPα-Fc-CD40L surrogate (arrows). Cell populations were assessed by flow cytometry and included CD20+ B cells, CD110+, CD4+/CD11c+, and CD8+/CD11c+ dendritic cells.
However, the in vitro systems used to test this question have significant limitations, including a complete lack of macrophages in the test system.

As for “SIRPα-Fc-CD40L: generic name of the SIRPαECD-Fc-CD40LECD chimeric protein; human or murine version according to the experiment”, in data set [1], the “simultaneous binding of SIRPα-domain to hCD47 and CD40L-domain to hCD40” value is recorded as “simultaneous binding”. Moreover, the phagocytosis-stimulating activity result in the data set with Toledo lymphoma cells (CALR Block (calreticulin blocking peptide)) is on record as “unable to reduce”; in the data set on Toledo lymphoma cells (CD40 Block), “not impacted”; with Toledo lymphoma cells (Fc Block), “partially inhibited”; in the data set with Toledo lymphoma cells (calreticulin blocking peptide and Fc receptor block together), “greatly reduced”. Further, the “interferon gene-driven luciferase activity (type I IFN response)” value in data set [2] was “stimulates an increase in interferon gene-driven luciferase activity”. For the same substance, the “proportion of overall splenic DCs vs antibody treated groups” value with splenic dendritic cells is “higher proportion of overall splenic DCs”. For the same substance, the “macrophage engulfment of tumor cells” value in data set [3] and in data set [4] was “more effective” each time. The phagocytic activity entry in data set [5] (combination with cetuximab) and in data set [5] (monotherapy) was “no phagocytic activity” each time. Besides, the hemolysis result in data set [6] was “did not reveal evidence of hemolysis”.
